Patent US10316049B2, “Tank-binding kinase inhibitor compounds” (Gilead Sciences, Inc., priority 2015, dated 2019)

Assays:
TBK1 = molecular target: T1, TBK1 (Homo sapiens, UniProt Q9UHD2); assay: TR-FRET enzymatic activity assay, TBK1; format: biochemical; also: full length recombinant TBK1 at 2.5 nM
T1 construct: TBK1 and IKKε were expressed and purified as full length recombinant proteins; made in house
T1 sequence (Q9UHD2 1-729): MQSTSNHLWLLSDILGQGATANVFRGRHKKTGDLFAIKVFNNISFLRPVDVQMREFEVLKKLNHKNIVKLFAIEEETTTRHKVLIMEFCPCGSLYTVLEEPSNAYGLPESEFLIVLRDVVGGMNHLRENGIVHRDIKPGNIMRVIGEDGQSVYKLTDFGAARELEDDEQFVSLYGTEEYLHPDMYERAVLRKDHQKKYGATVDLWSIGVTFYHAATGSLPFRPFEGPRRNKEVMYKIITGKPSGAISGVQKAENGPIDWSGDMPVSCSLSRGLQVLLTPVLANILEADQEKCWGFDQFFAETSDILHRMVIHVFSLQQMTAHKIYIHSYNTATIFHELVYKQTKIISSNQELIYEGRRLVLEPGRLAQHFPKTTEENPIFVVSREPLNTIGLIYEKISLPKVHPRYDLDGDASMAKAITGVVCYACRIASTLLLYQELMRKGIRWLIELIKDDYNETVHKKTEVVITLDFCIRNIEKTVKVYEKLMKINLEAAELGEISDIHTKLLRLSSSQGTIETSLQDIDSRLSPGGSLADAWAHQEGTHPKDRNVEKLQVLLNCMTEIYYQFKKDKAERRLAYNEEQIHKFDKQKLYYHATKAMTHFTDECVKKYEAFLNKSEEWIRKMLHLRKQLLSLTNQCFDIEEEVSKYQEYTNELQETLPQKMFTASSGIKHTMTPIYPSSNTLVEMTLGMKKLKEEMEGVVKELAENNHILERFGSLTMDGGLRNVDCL
Method in brief: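 Full-length recombinant enzymes phosphorylated a biotinylated Ser/Thr peptide for 240 min at 25 °C, stopped with EDTA. Phosphopeptide detected by TR-FRET (streptavidin XL665, Eu-cryptate anti-phospho antibody). IC50 from four-parameter fits normalized to 1 μM staurosporine and DMSO controls, as geometric means of at least four determinations.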

IKKε = molecular target: T2, IKKε (Homo sapiens, UniProt Q14164); assay: TR-FRET enzymatic activity assay, IKKε; format: biochemical; settings: read-out: IKKϵ IC50; also: full length recombinant IKKε at 0.3 nM
T2 construct: TBK1 and IKKε were expressed and purified as full length recombinant proteins; made in house
T2 sequence (Q14164 1-716): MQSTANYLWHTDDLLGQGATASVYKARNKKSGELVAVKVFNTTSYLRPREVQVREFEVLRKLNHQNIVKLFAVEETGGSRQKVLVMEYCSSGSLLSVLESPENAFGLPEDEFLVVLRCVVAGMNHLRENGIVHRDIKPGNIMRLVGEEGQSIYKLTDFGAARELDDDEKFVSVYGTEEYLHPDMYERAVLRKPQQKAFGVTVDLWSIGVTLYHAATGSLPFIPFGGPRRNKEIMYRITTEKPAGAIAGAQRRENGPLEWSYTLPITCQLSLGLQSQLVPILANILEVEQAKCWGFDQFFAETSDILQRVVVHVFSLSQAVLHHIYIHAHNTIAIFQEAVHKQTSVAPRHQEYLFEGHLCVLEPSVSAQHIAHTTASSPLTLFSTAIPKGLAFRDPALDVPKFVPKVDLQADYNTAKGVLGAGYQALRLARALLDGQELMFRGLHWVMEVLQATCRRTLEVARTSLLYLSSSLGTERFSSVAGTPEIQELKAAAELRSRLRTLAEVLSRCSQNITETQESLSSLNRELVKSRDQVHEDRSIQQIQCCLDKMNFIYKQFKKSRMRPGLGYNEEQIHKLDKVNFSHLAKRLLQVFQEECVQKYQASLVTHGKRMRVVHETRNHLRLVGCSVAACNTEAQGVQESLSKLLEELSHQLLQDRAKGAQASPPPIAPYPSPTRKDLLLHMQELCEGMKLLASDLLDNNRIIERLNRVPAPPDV
Method in brief: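 Full-length recombinant IKKε phosphorylated a biotinylated Ser/Thr peptide for 240 min at 25 °C; EDTA stop. Phospho-peptide detected by TR-FRET with streptavidin-XL665 (125 nM) and Eu-cryptate anti-phospho antibody. Normalised to staurosporine and DMSO controls; IC50 from four-parameter fit, geometric mean of ≥4 runs.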

Row | IC50 (TBK1) [nM] | IC50 (IKKε) [nM] | Structure (SMILES)
1 | > 1000 | > 1000 | N#Cc1cc(-c2cc(NC(=O)C3CC3)ncn2)ccc1F [Example 105, N-(6-(3-cyano-4-fluorophenyl)pyrimidin-4-yl)cyclopropanecarboxamide]
2 | 48.9 | 160 | Cc1ncc(C(=O)N2CC[C@H](Oc3ccc(-c4cc(NC(=O)C5CC5)ncn4)cc3C#N)[C@H](F)C2)o1 [Example 107, N-(6-(3-cyano-4-(((3R,4S)-3-fluoro-1-(2-methyloxazole-5-carbonyl)piperidin-4-yl)oxy)phenyl)pyrimidin-4-yl)cyclopropanecarboxamide]
3 | 28.3 | 108 | N#Cc1cc(-c2ccnc(NC(=O)C3CC3C(F)(F)F)c2)ccc1O[C@H]1CCN(C(=O)CO)C[C@H]1F (stereo partly drawn) [Example 66, N-(4-(3-Cyano-4-(((3R,4S)-3-fluoro-1-(2-hydroxyacetyl)piperidin-4-yl)oxy)phenyl)pyridin-2-yl)-2-(trifluoromethyl)cyclopropane-1-carboxamide]
4 | 6.1 | 7.1 | Cc1n[nH]c(C(=O)N2CC[C@H](Oc3ccc(-c4ccnc(NC(=O)C5CC5C)c4)cc3C#N)[C@H](F)C2)n1 (stereo partly drawn) [Example 75, N-(4-(3-Cyano-4-(((3R,4S)-3-fluoro-1-(3-methyl-1H-1,2,4-triazole-5-carbonyl)piperidin-4-yl)oxy)phenyl)pyridin-2-yl)-2-methylcyclopropane-1-carboxamide]
5 | 6.1 | 15.6 | Cn1cc([C@@H]2C[C@H]2C(=O)Nc2cc(-c3ccc(O[C@H]4CCN(C(=O)[C@@H](O)CO)C[C@H]4F)c(C#N)c3)ccn2)cn1 [Example 130, (1,2-Trans)-N-(4-(3-cyano-4-(((3R,4S)-1-((S)-2,3-dihydroxypropanoyl)-3-fluoropiperidin-4-yl)oxy)phenyl)pyridin-2-yl)-2-(1-methyl-1H-pyrazol-4-yl)cyclopropane-1-carboxamide]
6 | 18.1 | 29.6 | Cn1cc(C(=O)N2CC[C@H](Oc3ccc(-c4cc(NC(=O)C5CC5)ncn4)cc3C#N)[C@H](F)C2)nn1 [Example 27, N-(6-(3-cyano-4-(((3R,4S)-3-fluoro-1-(1-methyl-1H-1,2,3-triazole-4-carbonyl)piperidin-4-yl)oxy)phenyl)pyrimidin-4-yl)cyclopropanecarboxamide]
7 | 33.8 | 39.7 | N#Cc1cc(-c2ccnc(NC(=O)[C@H]3C[C@H]3F)c2)ccc1O[C@H]1CCN(C(=O)CO)C[C@H]1F [Example 59, (1R,2R)—N-(4-(3-cyano-4-(((3R,4S)-3-fluoro-1-(2-hydroxyacetyl)piperidin-4-yl)oxy)phenyl)pyridin-2-yl)-2-fluorocyclopropanecarboxamide]
8 | 740 | > 1000 | N#Cc1cc(-c2ccnc(NC(=O)[C@@H]3C[C@@H]3C(=O)O)c2)ccc1O[C@H]1CCN(C(=O)CO)C[C@H]1F [Example 73, (1,2-cis)-2-((4-(3-cyano-4-(((3R,4S)-3-fluoro-1-(2-hydroxyacetyl)piperidin-4-yl)oxy)phenyl)pyridin-2-yl)carbamoyl)cyclopropane-1-carboxylic acid]
9 | 58.8 | 314 | N#Cc1cc(-c2ccnc(NC(=O)[C@H]3C[C@@H]3C3CC3)c2)ccc1OC1CCOCC1 (relative stereo) [Example 88, (1,2-trans)-N-(4-(3-cyano-4-((tetrahydro-2H-pyran-4-yl)oxy)phenyl)pyridin-2-yl)-[1,1′-bi(cyclopropane)]-2-carboxamide]
10 | 17.3 | 11.2 | N#Cc1cc(-c2ccnc(NC(=O)[C@@H]3C[C@H]3c3cccnc3)c2)ccc1O[C@H]1CCN(C(=O)CO)CC1(F)F [Example 141, (1R,2R)—N-(4-(3-cyano-4-(((S)-3,3-difluoro-1-(2-hydroxyacetyl)piperidin-4-yl)oxy)phenyl)pyridin-2-yl)-2-(pyridin-3-yl)cyclopropane-1-carboxamide]
11 | 851 | > 1000 | N#Cc1cc(-c2ccnc(NC(=O)C3CC34CCOC4)c2)ccc1OC1CCOCC1 (stereo not shown) [Example 117, N-(4-(3-Cyano-4-((tetrahydro-2H-pyran-4-yl)oxy)phenyl)pyridin-2-yl)-5-oxaspiro[2.4]heptane-1-carboxamide]
12 | 33 | 231 | C[C@@H]1CCCN1c1ccc(-c2ccnc(NC(=O)C3CC3)c2)cc1C#N [Example 96, (R)—N-(4-(3-cyano-4-(2-methylpyrrolidin-1-yl)phenyl)pyridin-2-yl)cyclopropanecarboxamide]
13 | 12.2 | 33.2 | N#Cc1cc(-c2ccnc(NC(=O)[C@@H]3C[C@H]3c3cccnc3)c2)ccc1O[C@H]1CCN(C(=O)CO)C[C@H]1F (relative stereo) [Example 127]
14 | 16.7 | 16.2 | N#Cc1cc(-c2ccnc(NC(=O)[C@@H]3C[C@H]3F)c2)ccc1O[C@H]1CCN(C(=O)CO)C[C@H]1F [Example 62, (1S,2R)—N-(4-(3-cyano-4-(((3R,4S)-3-fluoro-1-(2-hydroxyacetyl)piperidin-4-yl)oxy)phenyl)pyridin-2-yl)-2-fluorocyclopropanecarboxamide]
15 | 5.7 | 6 | N#Cc1cc(-c2ccnc(NC(=O)[C@H]3C[C@@H]3c3cccnc3)c2)ccc1O[C@H]1CCN(C(=O)CO)CC1(F)F [Example 142, (1S,2S)—N-(4-(3-cyano-4-(((S)-3,3-difluoro-1-(2-hydroxyacetyl)piperidin-4-yl)oxy)phenyl)pyridin-2-yl)-2-(pyridin-3-yl)cyclopropane-1-carboxamide]
16 | 485 | > 1000 | CCOC(=O)[C@@H]1C[C@H]1C(=O)Nc1cc(-c2ccc(OC3CCOCC3)c(C#N)c2)ncn1 (relative stereo) [Example 35, (trans)-ethyl 2-((6-(3-cyano-4-((tetrahydro-2H-pyran-4-yl)oxy)phenyl)pyrimidin-4-yl)carbamoyl)cyclopropanecarboxylate]
17 | 105 | 254 | N#Cc1cc(-c2cc(NC(=O)C3CC3)ncn2)ccc1O[C@@H]1CCN(C(=O)CO)C[C@H]1F [Example 111, N-(6-(3-cyano-4-(((3R,4R)-3-fluoro-1-(2-hydroxyacetyl)piperidin-4-yl)oxy)phenyl)pyrimidin-4-yl)cyclopropanecarboxamide]
18 | 86.1 | 192 | N#Cc1cc(-c2ccnc(NC(=O)C3CC3)c2)ncc1O[C@H]1CCN(C(=O)CO)C[C@H]1F [Example 24, N-(4-cyano-5-(((3R,4S)-3-fluoro-1-(2-hydroxyacetyl)piperidin-4-yl)oxy)-[2,4′-bipyridin]-2′-yl)cyclopropanecarboxamide]
19 | 4.2 | 4.6 | Cc1n[nH]c(C(=O)N2CC[C@H](Oc3ccc(-c4cc(NC(=O)C5CC5)ncn4)cc3C#N)C(F)(F)C2)n1 [Example 34, (S)—N-(6-(3-cyano-4-((3,3-difluoro-1-(3-methyl-1H-1,2,4-triazole-5-carbonyl)piperidin-4-yl)oxy)phenyl)pyrimidin-4-yl)cyclopropanecarboxamide]
20 | 755 | > 1000 | N#Cc1cc(-c2ccnc(NC(=O)C3CC3)c2)ccc1N1CCC[C@H]1C(=O)O [Example 26, (2-Cyano-4-(2-(cyclopropanecarboxamido)pyridin-4-yl)phenyl)-L-proline]
